Measured values from patent US20070197590A1, “SUBSTITUTED DIPIPERIDINE CCR2 ANTAGONISTS” (priority 2006, published 2007).
Like-named read-outs stand apart in the source and are kept apart here.

Columns and labels:
CCR2 = molecular target: T1, CCR2 (Homo sapiens, UniProt P41597); experiment: MCP-1 Receptor Binding Assay in THP-1 Cells; settings: for IC50: THP-1 cells, 0.5 nM 125I labeled MCP-1, 2 hours at 30° C., read-out: Inhibition of MCP-1 Binding IC50; for inhibition at 25 µM: test concentration of 25 μM, given where an IC50 value was not obtained, read-out: Inhibition of MCP-1 Binding, percent inhibition
T1 construct: host or cells: THP-1 cells
T1 sequence (P41597 1-360 isoform P41597-2): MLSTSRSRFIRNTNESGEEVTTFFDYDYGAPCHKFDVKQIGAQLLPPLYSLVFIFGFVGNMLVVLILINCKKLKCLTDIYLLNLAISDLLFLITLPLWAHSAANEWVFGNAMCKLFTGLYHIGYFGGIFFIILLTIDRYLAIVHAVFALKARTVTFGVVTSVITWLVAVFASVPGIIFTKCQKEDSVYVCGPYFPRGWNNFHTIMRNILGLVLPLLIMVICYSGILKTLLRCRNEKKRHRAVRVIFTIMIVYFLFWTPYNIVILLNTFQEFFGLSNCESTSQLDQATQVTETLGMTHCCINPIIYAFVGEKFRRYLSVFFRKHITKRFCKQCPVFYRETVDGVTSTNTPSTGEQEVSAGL
Protocol: THP-1 cells were obtained from American Type Culture Collection (Manassas, Va., USA). The THP-1 cells were grown in RPMI-1640 supplemented with 10% fetal bovine serum in a humidified 5% CO2 atmosphere at 37° C. The cell density was maintained […].
THP-1 cells were incubated with 0.5 nM ^125, labeled MCP-1 (Perkin-Elmer Life Sciences, Inc. Boston, Mass.) in the presence of varying concentrations of either unlabeled MCP-1 (R & D Systems, Minneapolis, Minn.) or test compound for 2 hours at 30° C. in a 96 well plate. Cells were then harvested onto a filter plate, dried, and 20 μL of Microscint 20 was added to each well. Plates were counted in a TopCount NXT, Microplate Scintillation & Luminescence Counter (Perkin-Elmer Life Sciences, Inc. Boston, Mass.). Blank values (buffer only) were subtracted from all values and drug treated values were compared to vehicle treated values. 1 μM cold MCP-1 was used for nonspecific binding.
Table 1 lists IC50 values for inhibition of MCP-1 binding to CCR2 obtained for test compounds of the invention.

[1] = system: MCP-1 induced calcium ion influx in THP-1 cells; experiment: MCP-1 Induced Calcium Mobilization in THP-1 Cells; type: cell-based; settings: for IC50: 0.2 μM MCP-1, FLIPR, read-out: Inhibition of MCP-1 Induced Calcium Ion Influx IC50; for inhibition at 25 µM: THP-1, test concentration of 25 μM, given where an IC50 value was not obtained, read-out: Inhibition of MCP-1 Induced Calcium Ion Influx, percent inhibition
Protocol: THP-1 cells were plated at a density of 8×10^5 cells/mL (100 μL/well) into poly-D lysine coated clear bottom, black 96 well plates. The cells were loaded with 5 μM fluo-3 for 45 minutes. The fluo-3 washed off and cells were incubated with varying concentrations of test compound for 15 minutes. The change in calcium ion concentration upon addition of 0.2 μM MCP-1 was determined using FLIPR and compared to vehicle.
Table 2 lists IC50 values for inhibition of MCP-1 induced influx of calcium ions.

[2] = Homo sapiens, THP-1, THP-1 cells

4-hydroxy-4-{1-hydroxy-2-hydroxy-2-[4-(1H-indol-3-yl)-piperidin-1-yl]-ethyl}-piperidine-1-carboxylic acid (3,5-difluoro-phenyl)-amide [Compound 81]
IC50 (CCR2): 2600 nM | IC50 ([1]; THP-1 cells): 1800 nM

COc1ccc(C2CCN(CC(CO)C3CCN(C(=O)/C=C/c4cccc(C)c4)CC3)CC2)cc1 (centres unmarked) [Compound 42]
IC50 (CCR2): 2200 nM | IC50 [1, 2]: 3700 nM

COc1ccc(C2CCN(CC(CO)C3CCN(C(=O)Nc4ccc(Cl)c(Cl)c4)CC3)CC2)cc1 (centres unmarked) [Compound 44, 4-{1-hydroxymethyl-2-[4-(4-methoxy-phenyl)-piperidin-1-yl]-ethyl}-piperidine-1-carboxylic acid (3,4-dichloro-phenyl)-amide]
IC50 (CCR2): 1800 nM | IC50 [1, 2]: 720 nM

O=C(Nc1ccc(Cl)c(Cl)c1)N1CCC(CC(CO)N2CCC(c3c[nH]c4ccccc34)CC2)CC1 (centres unmarked) [Compound 58, 4-{3-hydroxy-2-[4-(1H-indol-3-yl)-piperidin-1-yl]-propyl}-piperidine-1-carboxylic acid (3,4-dichloro-phenyl)-amide]
IC50 (CCR2): 5000 nM | inhibition at 25 µM ([1]; Homo sapiens): 42%

COc1ccc(C2CCN(CC(NC(C)=O)C3CCN(C(=O)C=Cc4cc(F)c(F)c(F)c4)CC3)CC2)cc1 (centres unmarked) [Compound 66, N-(2-[4-(4-methoxy-phenyl)-piperidin-1-yl]-1-{1-[3-(3,4,5-trifluoro-phenyl)-acryloyl]-piperidin-4-yl}-ethyl)-acetamide]
IC50 (CCR2): 420 nM | IC50 [1, 2]: 1100 nM

O=C(/C=C/c1cc(F)cc(F)c1)N1CCC(O)(C(O)CN2CCC(c3c[nH]c4ccccc34)CC2)CC1 (centres unmarked) [Compound 71]
IC50 (CCR2): 40 nM | IC50 [1, 2]: 200 nM

O=C(/C=C/c1cccc(F)c1)N1CCC(O)(C(O)CN2CCC(c3c[nH]c4ccccc34)CC2)CC1 (centres unmarked) [Compound 76]
IC50 (CCR2): 470 nM | IC50 [1, 2]: 165 nM

O=C(/C=C/c1cccc(C(F)(F)F)c1)N1CCC(O)(C(O)CN2CCC(c3c[nH]c4ccccc34)CC2)CC1 (centres unmarked) [Compound 77]
IC50 (CCR2): 500 nM | IC50 [1, 2]: 85 nM

O=C(/C=C/c1ccsc1)N1CCC(O)(C(O)CN2CCC(c3c[nH]c4ccccc34)CC2)CC1 (centres unmarked) [Compound 79]
IC50 (CCR2): 810 nM | IC50 [1, 2]: 7400 nM

O=C(Nc1ccc(F)c(F)c1)N1CCC(O)(C(O)CN2CCC(c3c[nH]c4ccccc34)CC2)CC1 (centres unmarked) [Compound 82, 4-hydroxy-4-{1-hydroxy-2-[4-(1H-indol-3-yl)-piperidin-1-yl]-ethyl}-piperidine-1-carboxylic acid (3,4-difluoro-phenyl)-amide]
IC50 (CCR2): 1300 nM | IC50 [1, 2]: 2600 nM

OC(CN1CCC(c2c[nH]c3ccccc23)CC1)C1(O)CCN(C(=S)Nc2ccc(Cl)c(Cl)c2)CC1 (centres unmarked) [Compound 84, 4-hydroxy-4-{1-hydroxy-2-[4-(1H-indol-3-yl)-piperidin-1-yl]-ethyl}-piperidine-1-carbothioic acid (3,4-dichloro-phenyl)-amide]
IC50 (CCR2): 550 nM | IC50 [1, 2]: 30 nM

O=C(/C=C/c1cc(F)c(F)c(F)c1)N1CCC(O)(C(O)CN2CCC(c3nc4ccccc4[nH]3)CC2)CC1 (centres unmarked) [Compound 87]
IC50 (CCR2): 470 nM | IC50 [1, 2]: 3300 nM

COc1ccc(C2CCN(CC(O)C3CCN(C(=S)Nc4cc(Cl)cc(Cl)c4)CC3)CC2)cc1 (centres unmarked) [Compound 89, 4-{1-hydroxy-2-[4-(4-methoxy-phenyl)-piperidin-1-yl]-ethyl}-piperidine-1-carbothioic acid (3,5-dichloro-phenyl)-amide]
IC50 (CCR2): 550 nM | IC50 [1, 2]: 1800 nM

COc1ccc(C2CCN(CC(O)C3(O)CCN(C(=O)/C=C/c4cccc(C)c4)CC3)CC2)cc1 (centres unmarked) [Compound 95]
IC50 (CCR2): 1400 nM | inhibition at 25 µM ([1]; Homo sapiens): 53%

COc1ccc(C2CCN(CC(O)C3CCN(C(=S)Nc4cccc(OC)c4)CC3)CC2)cc1 (centres unmarked) [Compound 96, 4-{1-hydroxy-2-[4-(4-methoxy-phenyl)-piperidin-1-yl]-ethyl}-piperidine-1-carbothioic acid (3-methoxy-phenyl)-amide]
IC50 ([1]; THP-1 cells): 13100 nM

COc1ccc(C2CCN(CC(O)C3CCN(C(=S)Nc4cccc(C(F)(F)F)c4)CC3)CC2)cc1 (centres unmarked) [Compound 97, 4-{1-hydroxy-2-[4-(4-methoxy-phenyl)-piperidin-1-yl]-ethyl}-piperidine-1-carbothioic acid (3-trifluoromethyl-phenyl)-amide]
IC50 ([1]; THP-1 cells): 12900 nM

COc1ccc(C2CCN(CC(O)C3CCN(C(=S)Nc4ccc(Cl)c(Cl)c4)CC3)CC2)cc1 (centres unmarked) [Compound 98, 4-{1-hydroxy-2-[4-(4-methoxy-phenyl)-piperidin-1-yl]-ethyl}-piperidine-1-carbothioic acid (3,4-dichloro-phenyl)-amide]
IC50 [1, 2]: 800 nM

COc1ccc(C2CCN(CC(O)C3CCN(C(=S)Nc4ccc(Br)c(F)c4)CC3)CC2)cc1 (centres unmarked) [Compound 99, 4-{1-hydroxy-2-[4-(4-methoxy-phenyl)-piperidin-1-yl]-ethyl}-piperidine-1-carbothioic acid (4-bromo-3-fluoro-phenyl)-amide]
IC50 [1, 2]: 3500 nM

COc1ccc(C2CCN(CC(O)C3CCN(C(=S)Nc4cccc(Cl)c4)CC3)CC2)cc1 (centres unmarked) [Compound 102, 4-{1-hydroxy-2-[4-(4-methoxy-phenyl)-piperidin-1-yl]-ethyl}-piperidine-1-carbothioic acid (3-chloro-phenyl)-amide]
IC50 (CCR2): 480 nM | IC50 [1, 2]: 2500 nM

COc1ccc(C2CCN(CC(O)C3CCN(C(=S)Nc4cccc(OC)c4)CC3)CC2)cc1 (centres unmarked) [Compound 103, 4-{1-hydroxy-2-[4-(4-methoxy-phenyl)-piperidin-1-yl]-ethyl}-piperidine-1-carbothioic acid (3-methoxy-phenyl)-amide]
IC50 (CCR2): 500 nM | IC50 ([1]; THP-1 cells): 2200 nM

COc1ccc(C2CCN(CC(O)C3CCN(C(=S)Nc4cccc(C(F)(F)F)c4)CC3)CC2)cc1 (centres unmarked) [Compound 105, 4-{1-hydroxy-2-[4-(4-methoxy-phenyl)-piperidin-1-yl]-ethyl}-piperidine-1-carbothioic acid (3-trifluoromethyl-phenyl)-amide]
IC50 (CCR2): 540 nM | IC50 ([1]; THP-1 cells): 3400 nM

COc1ccc(C2CCN(CC(O)C3CCN(C(=S)Nc4ccc(C(F)(F)F)cc4)CC3)CC2)cc1 (centres unmarked) [Compound 106, 4-{1-hydroxy-2-[4-(4-methoxy-phenyl)-piperidin-1-yl]-ethyl}-piperidine-1-carbothioic acid (4-trifluoromethyl-phenyl)-amide]
IC50 (CCR2): 760 nM | IC50 [1, 2]: 2600 nM

COc1ccc(C2CCN(CC(O)C3CCN(C(=S)Nc4ccc(Cl)c(Cl)c4)CC3)CC2)cc1 (centres unmarked) [Compound 108, 4-{1-hydroxy-2-[4-(4-methoxy-phenyl)-piperidin-1-yl]-ethyl}-piperidine-1-carbothioic acid (3,4-dichloro-phenyl)-amide]
IC50 (CCR2): 210 nM | IC50 ([1]; THP-1 cells): 480 nM

COc1ccc(C2CCN(CC(O)C3(O)CCN(C(=O)/C=C/c4ccsc4)CC3)CC2)cc1 (centres unmarked) [Compound 113]
IC50 (CCR2): 1600 nM | IC50 [1, 2]: 4900 nM

COc1ccc(C2CCN(CC(O)C3(O)CCN(C(=O)Nc4ccc(F)c(F)c4)CC3)CC2)cc1 (centres unmarked) [Compound 114, 4-hydroxy-4-{1-hydroxy-2-[4-(4-methoxy-phenyl)-piperidin-1-yl]-ethyl}-piperidine-1-carboxylic acid (3,4-difluoro-phenyl)-amide]
IC50 (CCR2): 1100 nM | inhibition at 25 µM ([1]; Homo sapiens): 55%

COc1ccc(C2CCN(CC(O)C3(O)CCN(C(=O)Nc4cc(F)cc(F)c4)CC3)CC2)cc1 (centres unmarked) [Compound 115, 4-hydroxy-4-{1-hydroxy-2-[4-(4-methoxy-phenyl)-piperidin-1-yl]-ethyl}-piperidine-1-carboxylic acid (3,5-difluoro-phenyl)-amide]
IC50 (CCR2): 910 nM | inhibition at 25 µM ([1]; Homo sapiens): 57%

OC(CN1CCC(c2c[nH]c3ccc(N4CCOCC4)cc23)CC1)C1(O)CCN(C(=S)Nc2cc(F)cc(F)c2)CC1 (centres unmarked) [Compound 183, 4-hydroxy-4-{1-hydroxy-2-[4-(5-morpholin-4-yl-1H-indol-3-yl)-piperidin-1-yl]-ethyl}-piperidine-1-carbothioic acid (3,5-difluoro-phenyl)-amide]
inhibition at 25 µM (CCR2): 47%

CC(=O)Nc1ccc2[nH]cc(C3CCN(CC(O)C4CCNCC4)CC3)c2c1 (centres unmarked) [Compound 185, N-{3-[1-(2-hydroxy-2-piperidin-4-yl-ethyl)-piperidin-4-yl]-1H-indol-5-yl}-acetamide]
inhibition at 25 µM (CCR2): 54%
